# Where a name gives a salt, the structure may show the parent alone.
# System: IRF3 phosphorylation in FaDu cell
# Assay: Phosphorylated IRF3 protein detection in FaDu cell
# Format: cell-based, human
# Conditions: at 30 μM; 6 hr; 2′,3′-cGAMP 30 μM = 100%
# Procedure: Human larynx cancer cell line FaDu cell (ATCC) was seeded, the medium was replaced with serum free medium one day after the seeding. After the replacement, the cell was cultured for one day, and to the cell were added the natural ligand 2′,3′-cGAMP (the final concentration; 30 μM) and test compound (the final concentration; 15 μM or 30 μM). 6 hr after the addition, the cell was washed with PBS, the cell extract was prepared, and the phosphorylated IRF3 protein was detected by ELISA method or Western blotting method. The IRF3 protein phosphorylation activity of the test compound was calculated when the value in the sample with adding the natural ligand 2′,3′-cGAMP at the final concentration of 30 μM was considered as 100%.
compound,measurement,value
"Nc1ncnc2c1ncn2[C@@H]1O[C@@H]2COP(=O)(O)O[C@@H]3[C@H](O)[C@@H](COP(=O)(S)O[C@H]2[C@H]1F)O[C@H]3n1cc(F)c2c(=O)[nH]cnc21 (stereo partly drawn) [Example 2, 7-((5R,7R,8R,12aR,14R,15R,15aR,16R)-14-(6-amino-9H-purin-9-yl)-15-fluoro-10,16-dihydroxy-2,10-dioxido-2-sulfanyloctahydro-12H-5,8-methanofuro[3,2-1][1,3,6,9,11,2,10]pentaoxadiphosphacyclotetradecin-7-yl)-5-fluoro-3,7-dihydro-4H-pyrrolo[2,3-d]pyrimidin-4-one di-triethylamine salt (Optical Isomer)]",activity level of test compound (IRF3 protein phosphorylation),88.7% at 30 μM

# From patent US11666594B2, “Antibody-drug conjugates comprising a cyclic dinucleotide” (TAKEDA PHARMACEUTICAL COMPANY LIMITED, priority 2016, dated 2023)
